Results published in patent publication US4153709A, “N-Heterocyclic ureas as immune regulants” (Eli Lilly and Company, priority 1977, dated 1979).
Read-outs that look alike come from different tables or passages of the source.

Experiments:
[1] = tested on: graft versus host reaction; assay: Graft versus host (GVH) reaction, spleen weight (Tables 20, 21); type: in vivo, mice (C57BL donors, F1 hybrid C57BL×C3H recipients)
Procedure: In this determination, […] (C57BL) mouse spleen cells are injected into mice of an F1 hybrid strain (C57BL×C3H). […] The injected cells, however, mount a reaction to the recipient's tissues due to the foreign C3H-derived antigens. As a consequence, the recipient's spleen becomes enlarged. Immunosuppressive therapy prevents or reduces this enlargement. Thus, spleen weights provide a measure of the GVH reaction and its reduction under immunosuppression.
Treated and GVH control animals receive an intraperitoneal injection of 1.2×10^9 splenic lymphocytes from the C57 donors. Spleens are weighed ten days later. Spleen weights derived from groups of recipient mice receiving genetically homologous, i.e., syngeneic cells (C57BL×C3H) provide normal control values for calculating percent inhibition in drug-treated groups. For example, mice given 13 daily topical doses of 1-(4,5,6,7-tetra-hydro-2-benzothiazolyl)-3-phenyl urea show a 62% reduction in GVH reaction relative to controls, as set forth in Table 20.
Using this procedure, three compounds from the above useful in the processes of this invention have been compared with several reference immunosuppressive drugs. Treatment levels defining the 50 percent inhibitory dose have been determined.

[2] = tested on: antibody to sheep red blood cells; assay: 75 percent reduction of control antibody titer in mice by subcutaneous, percutaneous and oral routes (Table 16); type: in vivo, male Swiss mice; conditions: Mus musculus, Erythrocyte
Procedure: Subcutaneous, percutaneous, and oral activity have been achieved as indicated in Table 16 which follows employing representative compounds from the above entitled application. […] Except as indicated, the tests were performed using groups of five 20-gram male Swiss mice injected with 5×10^7 sheep red blood cells intravenously for each drug level. Ten (daily) administrations of drug were made commencing three days prior to red blood cell injection. On the day following the final treatment (7 days after red blood cell injection) the animals were bled by cardiac puncture, the sera from each five-mouse-group were pooled, and antibody titers of these serum pools and corresponding serum pools from control (untreated) mouse groups were determined. The results are expressed as the minimum drug dose effecting 75 percent reduction of control antibody titer: […]

[3] = tested on: antibody response to sheep blood cells (hemaglutination titer); assay: Immune regulating test: suppression of hemaglutination titer by 4-fold factor in mice (i.p. drug, i.p. sheep blood cells), Tables 1-15; type: in vivo, Swiss mice; conditions: Mus musculus, ip, 192 h, × 3, intraperitoneal, minimum dose to suppress the hemaglutination titer by a 4-fold factor, 8 days after antigen, read-out: Immuno-Suppressant ED4-Fold
Procedure: The ability of compounds according to the above formulas to alter immune mechanisms in a host animal was measured by their activity according to the following test. Groups of five 20-gram Swiss mice were injected intraperitoneally with standardized suspensions of an antigen--in this instance sheep blook cells. […] Eight days after injection of the antigen, the mice were bled and the sera from each group pooled. Antibody determinations were made on the serum pools by a hemaglutination pattern procedure and comparisons made between treated and control animals. In Tables 1-18 which follow, the activity of the compounds listed therein is given in terms of the minimum dose of drug necessary to suppress the hemaglutination titer by a 4-fold factor in the treated mice as compared with control titers.

[4] = tested on: Salmonella typhimurium G46 missense histidine-auxotroph; type: cell-based
Procedure: Compounds found active in the qualitative test were further tested. The culture to be tested was grown to stationary phase in tryptone yeast broth and then diluted to a viable count of about 9×10^7 organisms per milliliter.
Eleven log4 dilutions of the test compound were made covering a range that would allow survival of nonlethal mutants. The dilutions were made in Spizizen's minimal media with minute amounts of histidine and biotin (20 nM) each in […]. tubes. Each tube contained 3 ml. after dilution. Replicate 1 ml. aliquots of test organism were added to each tube including six "0" drug tubes. Final drug concentrations were calculated from 4-ml. volumes (3 ml. drug dilution +1 ml. test organism). Two of the "0" drug tubes were immediately plated at 10° dilution in minimal medium and 10^-5, 10^-6, 10^-7 dilutions in medium containing excess histidine (40 mcg/ml.) Spontaneous revertants (histidine+) were detected in the 10° dilution. Mutable population (histidine-) were detected in the 10^-5, 10^-6, and 10^-7 dilutions. All remaining dilutions were incubated in a Dubonoff shaker at 37° C. for 4 hr., then iced at 4° C. […] A 1-ml. aliquot from each "0" control was also plated at 10^-6, 10^-7, and 10^-8 dilutions in media with excess histidine to detect growth of mutable population (histidine-); normally there are 3-4 generations of the mutable population. All minimal media plates were counted. A dose response increase in revertants above spontaneous background indicated mutagenic potential of a test compound. […] Lethality has occurred to both populations, histidine+ and histidine-, at the same compound levels in all drugs tested to date.
The results are recorded as mutants test/mutants control.

[5] = tested on: Salmonella typhimurium G46 missense histidine-auxotroph; assay: Host mediated assay (in vivo mutagenicity), G46 indicator (Table 22); set-up: species or system Salmonella typhimurium in Cox white Swiss male mice
Procedure: Cox white Swiss male mice 25-30 grams were used in all in vivo tests.
A. Drug Administration: Appropriate solvents were used where applicable with a solvent control run within each test. […] The organisms were grown to stationary phase, then diluted with normal saline to give an inoculum near 1×10^8 organisms per milliliter. The abdominal area of the drug-treated mouse was swabbed with alcohol and two milliliters of bacterial culture were injected into the abdominal cavity of the mouse. The mice were returned to their cages for 3-4 hours.
C. Autopsy and Recovery: The mice were sacrificed individually by cervical dislocation prior to each autopsy. The abdominal areas were soaked with ethanol. The peritoneum was bared and 2.5 ml. of sterile normal saline was injected into the peritoneal cavity using a sterile (3-ml. plastic syringe with a 20-gauge needle. After insertion, the needle is turned bevel up and the saline was expelled into the cavity; while the needle remains through the peritoneum, keeping the point of the needle in sight pressed against the peritoneal wall, the abdomen of the mouse was massaged to mix contents. The saline wash was removed from the abdominal cavity back into the syringe. The needle was removed and the contents expelled into an appropriately marked tube and iced 4° C.
D. Dilution and Plating: One-ml. samples were plated at 10° dilution on all mice to determine revertants (histidine+).
A one-milliliter sample from the untreated dilutions from control animals is plated 10^-6, 10^-7, and 10^-8 dilutions with excess histidine to determine mutable population (histidine-).

[6] = tested on: Salmonella typhimurium G46 missense histidine-auxotroph; assay: Qualitative in vitro prescreen for mutagenicity, G46 indicator (Table 22); conditions: 200 mcg disc
Excerpt: Filter paper discs 1/4" were impregnated with 200 mcg of test compound using either H2 O or DMSO as solvent. The discs were placed on Petri dishes containing minimal media which had been individually seeded with one of the twelve tester strains. […] A uniform circle of colonies appear around the pad when a compound with mutagenic potential is present. The test compound forms a concentration gradient as it diffuses from the pad. Occasionally, there is a clear ring in close proximity to the pad surrounded by a uniform circle of revertant colonies which indicates a lethal mutation at high concentration of compound and nonlethal mutation at lesser concentration. A single pad thus allows one to test a compound over a wide range of concentrations. Histidine+ colonies were developed enough to read after 48 hr. incubation at 37° C. The plates were read as follows:
A. background zone, if present, is measured in millimeters, if not, a negative is recorded (-).
B. mutant zone is measured in millimiters, if present; if not, a negative (-) is recorded.
C. the mutation frequency can be estimated from density of mutant colonies as follows:
1. Low frequency--few colonies
2. Moderate frequency--many colonies
3. High frequency--dense ring of colonies
4. No colonies recorded (-)

neoplasms in NZBxW mice = conditions: cited from earlier work
[7] = tested on: antibody to the sheep red blood cell antigen; assay: Antibody response to sheep red blood cells in marmosets, injected drug; type: in vivo; conditions: 25 mg/kg daily for three days
Procedure: In order to determine if the compounds disclosed herein had immunoalterant activity in a primate species, representative numbers of the series were tested in marmosets. 1-(2-Fluorophenyl)-3-(6-methoxy-2-benzothiazolyl) urea was injected in 25 mg/kg doses daily for three days into five marmosets. A similar group of five untreated marmosets was reserved as a control series. On the day following the third treatment, all animals received intraperitoneal injections of antigen (1×10^9 sheep red blood cells). On the 7th day following antigen injection, serum levels of antibody to the sheep red blood cell antigen were determined.

[8] = sc, subcutaneous, × 10 daily doses commencing 3 days before antigen i.v., read-out: Lowest Dose Producing 75% Immunosuppression, Subcutaneous
[9] = percutaneous, × 10 daily doses commencing 3 days before antigen i.v., read-out: Lowest Dose Producing 75% Immunosuppression, Percutaneous
[10] = oral, × 10 daily doses commencing 3 days before antigen i.v., read-out: Lowest Dose Producing 75% Immunosuppression, Oral
[11] = 300 mg/kg, s.c., MT/MC of 3 would indicate mutagenic potential

C[C@]12CCC(=O)C=C1CC[C@@H]1[C@@H]2C(=O)C[C@@]2(C)[C@H]1CC[C@]2(O)C(=O)CO [Cortisone, reference compound]
Percent GVH Inhibition ([1]; 1.56 mg/kg × 13, s.c.): 48% | Percent GVH Inhibition ([1]; 3.12 mg/kg × 13, s.c.): 82% | minimal effective dose [2, 8]: 25 mg/kg | minimal effective dose ([2]; oral, × 10, **antigen given intraperitoneally, read-out: Lowest Dose Producing 75% Immunosuppression, Oral): 200 to 400 mg/kg | minimal effective dose [2, 9]: 50 mg/kg

O=C(Nc1ccccc1)Nc1nc2c(s1)CCCC2 [Table 13: phenyl, 1-(4,5,6,7-tetrahydro-2-benzothiazolyl)-3-phenyl urea]
Percent GVH Inhibition ([1]; 50 mg/kg × 13, oral): 41% | Percent Inhibition of GVH reaction ([1]; 100 mg/kg × 13, daily topical): 62% | Mg Spleen/g Body Weight ± S.E. ([1]; 100 mg/kg × 13, daily topical, GVH control 11.03 ± 0.35, syn. control 5.20 ± 0.37): 7.42 ± 0.63 Mg Spleen/g Body Weight | Percent GVH Inhibition ([1]; 100 mg/kg × 13, oral): 54% | minimal effective dose [2, 8]: 12.5 mg/kg | minimal effective dose [2, 10]: 25 to 100 mg/kg | minimal effective dose [2, 9]: 3.1 mg/kg | minimal effective dose [3]: 25 mg/kg

O=C(Nc1ccccc1)Nc1nc2ccccc2[nH]1 [Table 1: phenyl, H, 1-(2-benzimidazolyl)-3-phenyl urea]
minimal effective dose ([2]; sc, subcutaneous, *seven doses, once daily, commencing the day of antigen administration, read-out: Lowest Dose Producing 75% Immunosuppression, Subcutaneous): 31.5 mg/kg | minimal effective dose [3]: 12.5 mg/kg

O=C(Nc1ccccc1)Nc1nc2ccccc2s1 [Table 11: phenyl, H, S, 1-(2-benzothiazolyl)-3-phenyl urea]
Percent GVH Inhibition ([1]; 0.8 mg/kg × 13, s.c.): 29% | Percent GVH Inhibition ([1]; 1.6 mg/kg × 13, oral): 46% | Percent GVH Inhibition ([1]; 1.6 mg/kg × 13, s.c.): 54% | Percent GVH Inhibition ([1]; 3.12 mg/kg × 13, oral): 64% | minimal effective dose [2, 8]: 1 mg/kg | minimal effective dose [2, 10]: 25 mg/kg | minimal effective dose [2, 9]: 6.2 to 12.5 mg/kg | minimal effective dose [3]: 6.2 mg/kg

C1CN1c1nc(N2CC2)nc(N2CC2)n1 [TEM, trimethylenemelamine]
IN VITRO QUANTITATIVE MT/MC ([4]; 180 mcg/ml): 24 | IN VIVO mutants test/mutants control ([5]; 3 mg/kg, s.c.): 13 | IN VIVO mutants test/mutants control ([5]; 30 mg/kg, s.c.): 27 | IN VIVO mutants test/mutants control [5, 11]: 13 | IN VIVO mutants test/mutants control ([5]; .3 mg/kg, s.c.): 3.2 | IN VITRO QUALITATIVE FREQ (mutation frequency) [6]: MEDIUM

Cn1cnc([N+](=O)[O-])c1Sc1ncnc2nc[nH]c12 [Azathioprine, reference compound]
Percent GVH Inhibition ([1]; 5 mg/kg × 13, s.c.): 43% | Percent GVH Inhibition ([1]; 10 mg/kg × 13, s.c.): 61% | increase in neoplasms (neoplasms in NZBxW mice; Casey, New Zealand Medical Journal 74,290 (1973), control 0 percent): 58% | mutagenic potential in the host-mediated system ([5]; high levels): POSSIBLE MUTAGENIC POTENTIAL | minimal effective dose [2, 8]: 50 to 100 mg/kg | minimal effective dose [2, 10]: 50 mg/kg | minimal effective dose [2, 9]: 100 mg/kg

CC(=O)Oc1ccccc1C(=O)O [ASA, Acetylsalicylic Acid]
IN VITRO QUANTITATIVE MT/MC ([4]; 750 mcg/ml): .58 | IN VIVO mutants test/mutants control ([5]; 30 mg/kg, oral gavage): 1.11 | IN VIVO mutants test/mutants control ([5]; 300 mg/kg, oral gavage): 1.06 | IN VITRO QUALITATIVE ACTIVITY [6]: N

CN(C)N=O [DMNA, N-nitrosodimethylamine]
IN VITRO QUANTITATIVE MT/MC ([4]; 750 mcg/ml): .33 | IN VIVO mutants test/mutants control ([5]; 3 mg/kg, s.c.): 1.16 | IN VIVO mutants test/mutants control ([5]; 30 mg/kg, s.c.): 43.6 | IN VIVO mutants test/mutants control [5, 11]: 620 | requirement of host mediation for mutagenic potential ([5]; mouse, in vivo): requiring host-mediation to demonstrate mutagenic potential | IN VITRO QUALITATIVE ACTIVITY [6]: N

CN(N=O)C(=O)N[C@H]1C(O)O[C@H](CO)[C@@H](O)[C@@H]1O (stereo partly shown) [STREPTOZOTOCIN]
IN VITRO QUANTITATIVE MT/MC ([4]; .11 mcg/ml): 6750 | IN VIVO mutants test/mutants control ([5]; 3 mg/kg, s.c.): 2782 | IN VIVO mutants test/mutants control ([5]; 30 mg/kg, s.c.): 444 | IN VIVO mutants test/mutants control ([5]; .03 mg/kg, s.c.): 3.35 | IN VIVO mutants test/mutants control ([5]; .3 mg/kg, s.c.): 278 | IN VITRO QUALITATIVE FREQ (mutation frequency) [6]: HIGH

O=P1(N(CCCl)CCCl)NCCCO1 (stereo not shown) [Cyclophosphamide, reference compound]
Percent GVH Inhibition ([1]; 6.25 mg/kg × 13, s.c.): 32% | Percent GVH Inhibition ([1]; 12.5 mg/kg × 13, s.c.): 53% | incidence of neoplasms (neoplasms in NZBxW mice; Walker and Bole, J. Lab. Clin. Med. 82,619 (1972), control 5 percent): 100% | minimal effective dose [2, 10]: 25 mg/kg | minimal effective dose [2, 9]: 25 mg/kg

COc1ccc2nc(NC(=O)Nc3ccccc3F)sc2c1 [Table 11: o-fluorophenyl, 6-CH3 O, S, 1-(2-Fluorophenyl)-3-(6-methoxy-2-benzothiazolyl) urea]
treated animals showing detectable antibody ([7]; injected, five marmosets, 7th day following antigen): only one of the treated animals | antibody titer of the responding treated animal ([7]; controls titers from 1-10 to 1-80): 1-10 | minimal effective dose [3]: < 3.1 mg/kg

O=C(Nc1ccccc1)Nc1nc2c([N+](=O)[O-])cccc2[nH]1 [Table 6: 4(7), phenyl]
minimal effective dose [3]: 25 mg/kg

Cc1cc2nc(NC(=O)Nc3ccccc3F)sc2cc1C
minimal effective dose [3]: < 1.6 mg/kg

COc1ccccc1NC(=O)Nc1nc2ccccc2s1 [Table 11: o-anisyl, H, S]
minimal effective dose [3]: 50 mg/kg

CN(C(=O)Nc1cccc2ccccc12)c1nc2ccccc2s1 [Table 12: α-naphthyl]
minimal effective dose [3]: 50 mg/kg
